According to patent US9260413B2, “Inhibitors of catechol O-methyl transferase and their use in the treatment of psychotic disorders” (Merck Sharp & Dohme Corp., priority 2013, dated 2016):
pIC50: −log10 of the molar value. Where two headings read alike, the source gives them in different places.

Molecular target: purified human COMT enzyme of the Val158 variant (membrane-bound MB-COMT) (Homo sapiens (Human), UniProt P21964)
Experiment: Esculetin or Fluorescence Polarization assay (MB-COMT)
Format: biochemical
Method: Assays utilized purified human COMT enzyme of the Val158 variant (membrane-bound MB-COMT or soluble S-COMT) containing a C-terminal 6 or 10-histidine tag.
In a typical experiment the COMT inhibitory activity of the compounds of the present invention was determined in accordance with the following experimental methods detailed below. The fluorescence assay was based on methylation of a substrate (6,7-dihydroxycoumarin or ‘esculetin’) by COMT to produce a highly fluorescent product (7-hydroxy-6-methoxycoumarin or ‘scopoletin’). The reaction requires the presence of magnesium ions and a methyl donor, in this case S-adenosylmethionine (SAM). […] Recombinant enzyme was diluted in assay buffer (100 mM Na2HPO4 pH 7.4, 1 mM DTT, 0.005% Tween-20) and 35 μL was added to assay wells containing 1 μL of compound. Preincubation of COMT enzyme and compound proceeded for 2 hours at room temperature. Enzyme assays were initiated with 5 uL of a mixture containing 40 μM SAM (USB catalog # US10601), 4 μM esculetin (substrate) and 40 mM MgCl2. The formation of product (seopoletin) was monitored over time by fluorescence (excitation 340 nm, emission 460 nm, no lag, 100 μs integration time, 5 flashes, top read) using a Tecan Safire^2 plate reader. Assays were monitored over time until a signal to background of 4 to 1 was achieved. Titration curves and IC50 values were calculated using standard procedures. […] In some cases, compounds were not preincubated with MB-COMT for 2 hours at room temperature prior to starting the enzyme assays.
To determine IC50 values in the fluorescence polarization assay, solutions of test compounds were prepared and preincubated with COMT enzyme as stated above. […] After 25 minutes incubation at room temperature, reactions were quenched with 5 μL 250 mM EDTA, […]. To quenched reactions, 20 μL of a preformed complex containing S-adenosyl-L-cysteine (SAC) TAMRA tracer (2 mM from Ana spec diluted 1:80,000) and a 1:20 dilution of anti-S-adenosyl-L-homocysteine antibody (mouse monoclonal from Abbott Homocysteine detection kit, catalog #7D29-20) was prepared in assay buffer 11 (Na2HPO4 pH 7.2). Prior to combining with quenched enzyme assays, the SAH antibody/SAC TAMRA tracer complex was preformed at room temperature for 30 minutes while protected from light. Therefore, the final concentration of the SAH antibody/SAC TAMRA mix was 1:60 and 1:240,000, respectively. […] Titration curves and IC50 values were calculated using standard protocols.

[1] = Esculetin or Fluorescence Polarization assay, Val158 variant

Row | pIC50 [1] | pIC50 | Compound
1 | 6.74 | – | Cn1c(-c2ccc(Cl)c(C(F)(F)F)c2)ncc(O)c1=O [Example 1, 2-[4-chloro-3-(trifluoromethyl)phenyl]-5-hydroxy-3-methylpyrimidin-4(3H)-one]
2 | – | 7.03 | COc1ccc(Oc2cccc(-c3ncc(O)c(=O)n3C)c2)cc1 [Example 5, 5-hydroxy-2-[3-(4-methoxyphenoxy)phenyl]-3-methylpyrimidin-4(3H)-one]
3 | – | 6.68 | O=c1[nH]c(-c2ccc(C(F)(F)F)cc2)ncc1O [Example 6, 5-Hydroxy-2-(4-trifluoromethyl-phenyl)-3H-pyrimidin-4-one]
4 | 6.23 | – | O=c1[nH]c(-c2cccc(C#Cc3ccccc3)c2)ncc1O [Example 8]
